IC50 data for 28 molecules are collected here from patent US11021481B2, “Substituted isoindolin-1-ones and 2,3-dihydro-1h-pyrrolo[3,4-c]pyridin-1-ones as HPK1 antagonists” (Nimbus Saturn, Inc., priority 2019, dated 2021).

SMILES strings stand for the structures. Where a name gives a salt, the structure may show the parent alone. A value given as a limit tells only on which side of the number the result lay.

In the assay the target is HPK1 (Homo sapiens (Human), UniProt Q92918). Put plainly: HPK1 biochemical enzyme assay (microfluidic mobility shift assay). The conditions noted are these: 1.5 nM HPK1, ATP 1 mM final, 30 min preincubation, 60 min at RT, Caliper EZ Reader; read-out: HPK1 1000UMATP caliper IC50. The method in brief: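 Mobility shift readout of HPK1 activity after a 60 min RT reaction with 1 mM ATP, 1 μM substrate and 5 mM MgCl2. Enzyme/substrate mix was first exposed to compounds for 30 min, using ten-point curves topping at 3 μM final.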
Sequence of HPK1 (Q92918 whole entry): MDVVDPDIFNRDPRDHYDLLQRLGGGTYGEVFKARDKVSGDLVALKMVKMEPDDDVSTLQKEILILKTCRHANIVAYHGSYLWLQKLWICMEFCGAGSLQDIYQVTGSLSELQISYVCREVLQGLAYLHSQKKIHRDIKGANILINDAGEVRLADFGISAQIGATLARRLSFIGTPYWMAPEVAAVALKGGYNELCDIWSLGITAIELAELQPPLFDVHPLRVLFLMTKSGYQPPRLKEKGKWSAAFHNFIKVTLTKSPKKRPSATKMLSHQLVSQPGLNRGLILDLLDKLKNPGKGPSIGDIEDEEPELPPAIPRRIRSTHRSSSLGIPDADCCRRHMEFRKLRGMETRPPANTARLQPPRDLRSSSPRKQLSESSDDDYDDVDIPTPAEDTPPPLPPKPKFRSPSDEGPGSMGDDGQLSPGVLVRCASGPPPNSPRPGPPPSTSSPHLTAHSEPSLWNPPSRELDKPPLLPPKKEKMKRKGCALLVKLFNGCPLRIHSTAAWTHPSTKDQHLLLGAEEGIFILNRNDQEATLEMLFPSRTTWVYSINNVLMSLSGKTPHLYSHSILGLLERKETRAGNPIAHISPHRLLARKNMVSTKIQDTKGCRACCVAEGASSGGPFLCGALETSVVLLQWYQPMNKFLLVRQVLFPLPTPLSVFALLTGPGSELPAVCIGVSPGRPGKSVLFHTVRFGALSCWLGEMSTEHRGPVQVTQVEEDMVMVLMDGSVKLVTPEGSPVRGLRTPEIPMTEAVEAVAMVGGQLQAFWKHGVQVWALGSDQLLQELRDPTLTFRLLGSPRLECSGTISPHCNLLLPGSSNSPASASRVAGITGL
As for `O=C1NCc2c(-c3cnc4cc(F)ccn34)ccc(Nc3ccc([C@H]4CCOC4)c(CNCC(F)(F)F)n3)c21` [I-750, (R)-4-(7-fluoroimidazo [1,2-a]pyridin-3-yl)-7-((5-(tetrahydrofuran-3-yl)-6-(((2,2,2-trifluoroethyl)amino)methyl)pyridin-2-yl)amino)isoin-dolin-1-one], the IC50 is < 100 nM. As for `Cn1ccc2c(-c3ncc(Nc4ccc([C@@H]5CCOC5)c(CN5CC[C@@H](O)C5)n4)c4c3CNC4=O)ccnc21` [I-809, 7-((6-(((R)-3-hydroxypyrroli-din-1-yl)methyl)-5-((S)-THF-3-yl)pyridin-2-yl)amino)-4-(1-methyl-1H-pyrrolo[2,3-b]pyridin-4-yl)-2,3-dihydro-1H-pyrrolo[3,4-c]pyridin-1-one], the IC50 was < 100 nM. The result for `COCC1(O)CCN(c2ccc(Nc3ccc(-c4ccnc5c4ccn5C)c4c3C(=O)NC4)nc2)CC1` [I-298, 7-((5-(4-hydroxy-4-(methoxymeth-yl)piperidin-1-yl)pyridin-2-yl)amino)-4-(1-methyl-1H-pyrrolo[2,3-b]pyridin-4-yl)isoindolin-1-one] reads < 100 nM. For the molecule `CN1CCN(CC2(O)CCN(c3ccc(Nc4cnc(-c5cnc6ccccn56)c5c4C(=O)NC5)nc3)CC2)CC1` [I-648, 7-((5-(4-hydroxy-4-((4-methylpiperazin-1-yl)methyl)pip-eridin-1-yl)pyridin-2-yl)amino)-4-(imidazo[1,2-a]pyridin-3-yl)-2,3-dihydro-1H-pyrrolo[3,4-c]pyridin-1-one], the IC50 is < 100 nM. Turning to `CN1CCN(c2ccc(Nc3cnc(-c4c[nH]c5cc(OCc6ccccc6)ccc45)c4c3C(=O)NC4)nc2)CC1` [I-260, 4-(6-(benzyloxy)-1H-indol-3-yl)-7-((5-(4-methylpiperazin-1-yl)pyridin-2-yl)amino)-2.3-dihydro-1H-pyrrolo[3,4-c]pyridin-1-one], the IC50 was > 1000 nM. Consider `O=C1NCc2c(-c3cnc4cc(F)ccn34)ccc(Nc3ccc(N4CC[C@H](F)[C@H](O)C4)cn3)c21` [I-359, 7-((5-((3R,4S)-4-fluoro-3-hydroxy-piperidin-1-yl)pyridin-2-yl)amino)-4-(7-fluoroimidazo [1,2-a]pyridin-3-yl)isoindolin-1-one], for which the half-maximal inhibitory concentration (IC50) is < 100 nM. For `Cn1ccc2c(-c3ncc(Nc4cccc(N5CCC6CNCC65)n4)c4c3CNC4=O)ccnc21` (stereo not drawn) [I-472, 7-[[6-(3,3a,4,5,6,6a-hexahydro-2H-pyrrolo[2,3-c]pyrrol-1-yl)-2-pyridyl]amino]-4-(1-methylpyrrolo [2,3-b]pyridin-4-yl)-2,3-dihydropyrrolo [3,4-c]pyridin-l-one], the IC50 was < 100 nM.

For `CN(C)C1COCCN(c2ccc(Nc3ccc(-c4cnc5cc(F)ccn45)c4c3C(=O)NC4)nc2)C1` (stereo not shown) [I-509, 7-[[5-[6-(dimethylami-no)-l,4-oxazepan-4-yl]-2-pyridyl]amino]-4-(7-fluoroimidazo [1,2-a]pyridin-3-yl)isoindolin-1-one Formic acid salt], the IC50 was < 100 nM. The value for `CN(C)Cc1nc(Nc2cnc(-c3ccnc4c3ccn4C)c3c2C(=O)NC3)ccc1O[C@H]1CCOC1` [I-806, (S)-7-((6-((dimetlnlamino)-methyl)-5-((tetrahydrofur-an-3-yl)oxy)pyridin-2-yl)amino)-4-(1-methyl-1H-pyrrolo[2,3-b]pyridin-4-yl)-2,3-dihydro-1H-pyrrolo[3,4-c]pyridin-1-one] was < 100 nM; that for `CN1CCCc2c(-c3ccc(Nc4ccc(N5CCNCC5)cn4)c4c3CNC4=O)ccnc21` [I-118, 4-(8-methyl-6.7-dihydro-5H-1,8-naphthyridin-4-yl)-7-[(5-piperazin-1-yl-2-pyridyl)amino] isoindolin-1-one] was 100 to 1000 nM; that for `O=C1NCc2c(-c3cnc4cc(F)ccn34)ccc(Nc3ccc(N4CCC(O)(CN5CCOCC5)CC4)cn3)c21` [I-348, 4-(7-fluoroimidazo [1,2-a]pyridin-3-yl)-7-((5-(4-hydroxy-4-(morpholino-methyl)piperidin-1-yl)pyridin-2-yl)amino)isoin-dolin-1-one] was < 100 nM. The value for `Cn1cc(-c2ccc(Nc3ccc(N4CCC(O)CC4)cn3)c3c2CNC3=O)c2cnncc21` [I-425, 7-((5-(4-hydroxy-piperidin-1-yl)pyridin-2-yl)amino)-4-(1-methyl-1H-pyrrolo[2,3-d]pyridazin-3-yl)isoindolin-1-one] was < 100 nM.

Regarding `CN(C)Cc1nc(Nc2cnc(-c3cccc4c3ccn4C)c3c2C(=O)NC3)ccc1[C@H]1CCOC1` [I-547, (R)-7-((6-((dimethylamino)-methyl)-5-(tetrahydrofuran-3-yl)pyridin-2-yl)amino)-4-(1-methyl-1H-indol-4-yl)-2,3-dihydro-1H-pyrrolo[3,4-c]pyridin-1-one], the IC50 is < 100 nM. As to `C[C@H]1C[C@H](O)CCN1c1ccc(Nc2ccc(-c3cnc4cnccn34)c3c2C(=O)NC3)nc1` [I-352, 7-((5-((2S,4R)-4-hydroxy-2-methylpiperidin-1-yl)pyridin-2-yl)amino)-4-(imidazo[1,2-a]pyrazin-3-yl)isoindolin-1-one], the IC50 is < 100 nM. With `CN(C)C(C)(C)[C@@H]1CN(c2ccc(Nc3ccc(-c4cnc5cnccn45)c4c3C(=O)NC4)nc2)CCO1` [I-617, (S)-7-((5-(2-(2-(dimethylami-no)propan-2-yl)morpho-lino)pyridin-2-yl)amino)-4-(imidazo[1,2-a]pyrazin-3-yl)isoindolin-1-one], the IC50 is < 100 nM. As to `CN(CCO)Cc1nc(Nc2ccc(-c3cnc4cc(F)ccn34)c3c2C(=O)NC3)ccc1C1CCOC1` (stereo in doubt) [I-733, (S)-4-(7-fluoroimidazo [1,2-a]pyridin-3-yl)-7-(6-(((2-hydroxy-ethyl)(methyl)-amino)methyl)-5-(tetrahydrofuran-3-yl)pyridin-2-yl)amino)isoin-dolin-1-one], the IC50 is < 100 nM.

As for `CCc1[nH]c2ccccc2c1-c1ccc(Nc2ccc(N3CCN(C)CC3)cn2)c2c1CNC2=O` [I-34, 4-(2-ethyl-1H-indol-3-yl)-7-[[5-(4-methylpiperazin-1-yl)-2-pyridyl]amino] isoindolin-1-one], the 50% inhibitory concentration (IC50) is < 100 nM. Turning to `CC(C)N1CCN(c2ccc(Nc3cnc(-c4ccnc5c4ccn5C)c4c3C(=O)NC4)nc2)CC1` [I-319, 7-((5-(4-isopropylpiperazin-1-yl)pyridin-2-yl)amino)-4-(1-methyl-1H-pyrrolo[2,3-b]pyridin-4-yl)-2,3-dihydro-1H-pyrrolo[3,4-c]pyridin-1-one], the IC50 was < 100 nM. The result for `N#Cc1ccn2c(-c3ccc(Nc4ccc(N5CCNCC5)cn4)c4c3CNC4=O)cnc2c1` [I-120] reads < 100 nM.

`O=C1NCc2c(-c3cnc4cc(F)ccn34)ccc(Nc3ccc([C@H]4CCOC4)c(CN4CC[C@@H](F)C4)n3)c21` (stereo in doubt) [I-741, 4-(7-fluoroimidazo [1,2-a]pyridin-3-yl)-7-((6-(((R)-3-fluoropyrrol-idin-1-yl)methyl)-5-((S)-tetrahydrofur-an-3-yl)pyridin-2-yl)amino)isoin-dolin-1-one]: the IC50 was < 100 nM. In the case of `CN(C)Cc1nc(Nc2ccc(-c3cnc4cc(F)ccn34)c3c2C(=O)NC3)ccc1[C@@H]1CCCOC1` [I-551], the IC50 is < 100 nM. In the case of `O=C1NCc2c(-c3c[nH]c4ccccc34)ncc(Nc3ccc(N4CCC(F)(F)CC4)cn3)c21` [I-12, 7-[[5-(4,4-difluoro-1-piperidyl)-2-pyridyl]amino]-4-(1H-indol-3-yl)-2,3-dihydropyrrolo [3,4-c]pyridin-1-one], the IC50 is > 1000 nM. On to `O=C1NCc2c(-c3cnc4cnccn34)ccc(Nc3ccc(N4[C@@H]5CC[C@H]4C[C@H](O)C5)cn3)c21` [I-320, 7-((5-((1R,3s,5S)-3-hydroxy-8-azabicyclo [3,2.1]octan-8-yl)pyridin-2-yl)amino)-4-(imidazo[1,2-a]pyrazin-3-yl)isoindolin-1-one], for which the 50% inhibitory concentration (IC50) is < 100 nM. Turning to `CN(C)C1(C2CN(c3ccc(Nc4ccc(-c5cnc6cc(F)ccn56)c5c4C(=O)NC5)nc3)CCO2)CC1` (stereo in doubt) [I-686, (R)-7-((5-(2-(1-(dimethylami-no)cyclopropyl)morphoIino)py-ridin-2-yl)amino)-4-(7-fluoroimidazo [1,2-a]pyridin-3-yl)isoindolin-1-one], the half-inhibitory concentration (IC50) was < 100 nM. Consider `CN(C)C(C)(C)[C@]1(O)CCCN(c2ccc(Nc3ccc(-c4cnc5cc(F)ccn45)c4c3C(=O)NC4)nc2)C1` [I-715, (S)-7-((5-(3-(2-(dimethylami-no)propan-2-yl)-3-hydroxy-piperidin-1-yl)pyridin-2-yl)amino)-4-(7-fluoroimidazo [1,2-a]pyridin-3-yl)isoindolin-1-one], for which the IC50 was < 100 nM. `COc1cc(Nc2cnc(-c3ccnc4c3ccn4C)c3c2C(=O)NC3)nc(N2CC[C@H]3CNC[C@H]32)c1` [I-681, 7-((6-((3aS, 6aS)-hexahydropyrrolo[3,4-b]pyrrol-1(2H)-yl)-4-methoxypyridin-2-yl)amino)-4-(1-methyl-1H-pyrrolo[2,3-b]pyridin-4-yl)-2,3-dihydro-1H-pyrrolo[3,4-c]pyridin-1-one]: the IC50 was < 100 nM. The value for `COCC1(O)CCN(c2ccc(Nc3ccc(-c4cnc5cc(F)ccn45)c4c3C(=O)NC4)nc2CN(C)C)CC1` [I-782, 7-((6-((dimethylamino)-methyl)-5-(4-hydroxy-4-(methoxymeth-yl)piperidin-1-yl)pyridin-2-yl)amino)-4-(7-fluoroimidazo [1,2-a]pyridin-3-yl)isoindolin-1-one] was < 100 nM; that for `CN(C)Cc1nc(Nc2ccc(-c3cnc4cc(F)ccn34)c3c2C(=O)NC3)cnc1[C@H]1CCOC1` [I-800, (R)-7-((6-((dimethylamino)-methyl)-5-(tetrahydrofuran-3-yl)pyrazin-2-yl)amino)-4-(7-fluoroimidazo [1,2-a]pyridin-3-yl)isoindolin-1-one] was < 100 nM.

In general, IC50 refers to the concentration at which inhibition is half-maximal.
